details: rat; liver microsomes; pH 7.4; 15.0 min; 1.0 µM

half-life [min]	Compound
> 30	COc1cccc(CN(C)c2ccc([S+](=O)([O-])Nc3nccs3)cc2)c1O
2.45	O=C(CCS(=O)(=O)c1nc(-c2cccs2)cc(C(F)(F)F)n1)Nc1ccc(OC(F)(F)F)cc1
2.07	Cc1ccc(NC(=O)c2cc(S(=O)(=O)NCCC3=CCCCC3)ccc2F)cc1F
21	Fc1cnc(-c2ccccc2C(F)F)nc1NCc1ccc(-n2ccnn2)cc1
3.5	Cc1ccc(S(=O)(=O)Nc2ccccc2C(=O)Nc2cnc(-c3ccccc3)cn2)cc1
> 30	O=C(NCCCn1ccnc1)c1nc(-c2ccccc2)cc2[nH]ccc12
> 30	Cc1cc(C)c(CNC(=O)c2nc(-c3ccc(CN(C)C)cc3)cc3c2ccn3C(C)C)c(=O)[nH]1
8.77	COc1cc2c(cc1NC(=O)COc1ccc(Cl)cc1)oc1ccccc12
> 30	O=C(c1ccco1)N1CCN(c2nc(-c3ccc(Br)cc3)cs2)CC1
1	Cc1ccc(S(=O)(=O)NC2CCCCC2)cc1
18.6	O=C(NC(c1ccccc1)c1cc(Cl)c2cccnc2c1O)c1cccnc1 (configuration not stated)
> 30	COc1cc(-c2ccnc3c2c(C)nn3-c2cccc(C(F)(F)F)c2)ccc1O
1.6	Cc1cccc(C)c1C(=O)Nc1cccc([S+](=O)([O-])N2CCCCCC2)c1
> 30	Fc1cc(Nc2nc(-c3ccncc3)nc3ccccc23)ccc1-c1cc(F)c(F)c(F)c1
8.9	COc1cccc(O)c1CNc1ccc(S(=O)(=O)Nc2nccs2)cc1
2.2	COc1ccc(-n2c(C)c(C(C)=O)c3cc(O)ccc32)cc1
2.5	Cc1ccc(C(=O)[C@H]2CC[C@@H](C(=O)Nc3ccc(S(=O)(=O)Nc4nccs4)cc3)C2)cc1C
8.16	COc1ccc(C2=Nc3ccc(Br)cc3C(c3ccccc3)N2CC(=O)NN)cc1 (configuration not stated)
> 30	Cc1ccc(C(=O)Nc2ccc(CN3CCN(C)CC3)c(C(F)(F)F)c2)cc1C#Cc1cnc2cccnn12
> 30	Fc1cc(Nc2nc(-c3ccncc3)nc3ccccc23)ccc1-c1ccc2[nH]ncc2c1
> 30	CC(=O)c1c(C)[nH]c(C(=O)Nc2ccc(OCCCN(C)C)c(S(=O)(=O)Nc3ccc(Br)cc3)c2)c1C
14	Cc1ccc(-c2cc(C(=O)Nc3cccc(S(=O)(=O)Nc4nccs4)c3)c3ccccc3n2)cc1C
5.2	COc1ccc(NC(=O)c2c(C)cccc2C)cc1S(=O)(=O)Nc1ccc(Br)cc1
1.73	CC1Cc2cc(S(=O)(=O)NCc3ccc(N(C)C)cc3)ccc2N1C(=O)C1CCC1 (configuration not stated)

half-life [min]	Compound
12.8	CCc1cccc(-n2nnc(-c3nsc(NC(=O)c4cccc(OC)c4)n3)c2C)c1
8.55	Cc1cc(S(=O)(=O)Nc2cnccc2C(=O)Nc2nc(-c3ccccc3)cs2)c(C)o1
> 30	O=[S+]([O-])(Nc1nccs1)c1ccc(NCc2cccc3c2NCC3)cc1
21.2	CSc1nc(N)cc(Oc2ccc(-c3nc(Nc4cccc(C(F)(F)F)c4)n[nH]3)cc2)n1
13	Cc1ccc(S(=O)(=O)Nc2cc(Cl)c(Cl)cc2C(=O)Nc2nc(-c3ccccc3)cs2)cc1
> 30	CNC(=O)c1cc(Oc2ccc(NC(=O)Nc3ccc(Cl)c(C(F)(F)F)c3)c(F)c2)ccn1
3.54	Oc1c(C(Nc2nccs2)c2ccc(C(F)(F)F)cc2)ccc2cccnc12 (configuration not stated)
5.7	CCS(=O)(=O)c1nc(-c2ccc(Cl)cc2)cc(C(F)(F)F)n1
23	Cc1ccc(S(=O)(=O)n2cc(C(=O)Nc3nc(-c4ccccc4)cs3)c3ccccc32)cc1
17	Cc1ccc(-c2cc(C(=O)NCc3ccc(S(N)(=O)=O)cc3)c3ccccc3n2)cc1C
20.3	COc1ccc(Nc2nc(-c3cccc(OC)c3)no2)cc1
> 30	Cc1ccc(-c2csc(Nc3ccc(S(=O)(=O)Nc4nccs4)cc3)n2)cc1C
3.4	Cc1ccc(-c2cc3c(nn2)-c2ccccc2C3=O)cc1
> 30	CC(C)Oc1ccc(-c2csc(N3CCC(C(N)=O)CC3)n2)cc1
1	COC(=O)[C@H](Cc1ccc(O[S+](=O)([O-])c2cccc3cnccc23)cc1)N[S+](=O)([O-])c1ccc2cnccc2c1
20	O=S(=O)(Nc1ccc(C2CCNCC2)cc1)c1ccc(NCc2cccc(Cl)c2O)cc1
> 30	O=C(Nc1nc(-c2ccc(F)cc2)cs1)c1ccncc1NS(=O)(=O)c1ccccc1Cl
20	Fc1ccc(-c2nc(-c3ccncc3)nc3ccccc23)cc1F
11	COC(=O)[C@H](NC(=O)c1cc(-c2ccccc2)nc2ccccc12)c1ccccc1
> 30	COc1cc2nccc(Oc3ccc(NC(=O)Nc4cc(C)on4)c(Cl)c3)c2cc1OC
4.45	COc1ccccc1-c1nc(NCc2ccc(-c3cccnc3)cc2)c2ccccc2n1
6.4	N#Cc1cnccc1-c1nc(Nc2ccc(F)c(F)c2)c2ccccc2n1
> 30	Cc1ccc(C(=O)Nc2cccc(C(F)(F)F)c2)cc1Nc1nc(-c2cccnc2)nc2c1cnn2C
> 30	Cc1ccc([S+](=O)([O-])n2cc(-c3ccc(-c4ccccc4)cc3)c3ccccc32)cc1

The next lines start with the compound.

Compound	half-life [min]
CCc1cc(Cl)c(OC)c(C(=O)NC[C@@H]2CCCN2CC)c1O	1.71
CCOc1ccc(CCNC(=O)c2cc3ncccc3n2Cc2cccc(C)c2)cc1OCC	1.9
COc1cccc(CN2CCNc3cc(Nc4ccccc4)ncc3C2)c1	1.58
O=C(NC1CCCc2c1cnn2-c1ccc(F)cc1F)c1ccc(C2(C(F)(F)F)N=N2)cc1 (configuration not stated)	> 30
CCc1ccc(C(=O)Nc2cc(CN3CCN(C)CC3)cc(C(F)(F)F)c2)cc1C#Cc1cnc2ccnn2c1	> 30
CS(=O)(=O)c1ccccc1-c1csc(N2CCC(C(N)=O)CC2)n1	> 30
COc1ccc(CCNc2ncnc3onc(C)c23)c(OC)c1	2.23
COC(=O)Nc1nc2ccc(Sc3ccccc3)cc2[nH]1	18.4
O=C(C=Cc1cccnc1)NCCCCC1CCN(C(=O)c2ccccc2)CC1	12.2
O=C(O)c1c(Sc2ccccc2)c2cc(Cl)ccc2n1Cc1ccc(Cl)cc1	26.6
O=C(Nc1cccc(F)c1)c1cc(-c2ccc[nH]2)n[nH]1	9.45
O=[S+]([O-])(Nc1ccccc1)c1ccc(NCc2cccc(C(F)(F)F)c2F)cc1	9
OCCNc1ncnc2c1ncn2[C@@H]1O[C@@H](CO)[C@H](O)[C@@H]1O	> 30
NCC(=O)Nc1cccc(-c2nn3c(=O)cc(N4CCNCC4)nc3s2)c1	> 30
Cc1ccc(C(=O)NC2CCN(c3cnn(CC4CC4)c(=O)c3)CC2)cc1C	16.3
Cc1ccc(OCCn2c(CCNC(=O)N3CCCCC3)nc3ccccc32)cc1	1.7
O=C(c1cnc(N2CCCCC2)c2ccccc12)N1CCN(c2ccccn2)CC1	2.1
O=C1CCC(C(=O)N2CCSCC2)CN1Cc1ccc(Cl)cc1 (configuration not stated)	10
O=C(O)C1CCN(c2ncc(-c3ccc4c(c3)OCCCO4)s2)CC1	> 30
Cc1ccnc(NC(=S)N2CCN(c3cccc(C(F)(F)F)c3)C[C@@H]2C)c1	7.12
Cc1nn2c(c1-c1ccccc1OCc1ccccc1)N(C(=O)Cc1ccc3c(c1)OCO3)CCC2	1.41
O=C(Cc1ccc(Cl)cc1)Nc1cnccc1C(=O)O	> 30
COCCOc1cnc2ccn([C@H](C)c3nnc4c(F)cc(-c5cnn(C)c5)cn34)c(=O)c2c1	> 30
COc1cc(C(=O)NC2CCCc3c2[nH]c2ccccc32)cc(OC)c1OC (configuration not stated)	11.8
COc1ccc(-c2noc([C@@H]3Cc4nc[nH]c4CN3C(=O)NC3CCCCC3)n2)cc1	6.59
O=C1CCCC2=C1C(c1[nH]ncc1Cl)N=C(Nc1nc3cc([S+](=O)([O-])N4CCCC4)ccc3o1)N2 (configuration not stated)	8
CN1CCN(C2=Nc3ccccc3Sc3ccc(Cl)cc32)CC1	1.11

Compound	half-life [min]
CN[C@@H]1C[C@@H](c2ccc(Cl)c(Cl)c2)c2ccccc21	17.2
FC(F)(F)c1cccc(N2CCN(C(=S)Nc3cc4ccccc4cn3)CC2)c1	> 30
CCn1cc(C(=O)N2CCN(c3cccc(Cl)c3)CC2)c2cc(OC)c(OC)cc2c1=O	7.12
CCOC(=O)N1CCN(C(=O)Cn2sc3nc(C)cc(C)c3c2=O)CC1	> 30
CCOc1ccc(CCNC(=O)c2cc3sccc3n2CCN2CCOCC2)cc1OCC	1.6
CC[C@@H]1C(=O)N(C)c2cnc(Nc3ccc(C(=O)NC4CCN(C)CC4)cc3OC)nc2N1C1CCCC1	> 30
NC(=O)C1CCN(c2nccc(-c3ccc4c(c3)OCCO4)n2)CC1	1.71
Oc1cccc(-c2nc(N3CCOCC3)c3oc4ncccc4c3n2)c1	21.8
CC(C)(C)C(=O)C(Oc1ccc(Cl)cc1)n1ccnc1 (configuration not stated)	> 30
CC(=O)c1ccc(N2CCN(S(=O)(=O)c3cc4c(cc3Cl)NC(=O)C4)CC2)cc1	28
COc1ccc(Cn2c(=O)[nH]c3cc(C(=O)NCCCN4CCCCC4)ccc3c2=O)cc1	> 30
C=C1C(=O)O[C@H]2[C@@H]1CCC(C)=CCC[C@@]1(C)O[C@@H]21	16.7
COc1cc(-c2csc(N3CCC(C(N)=O)CC3)n2)cc(OC)c1OC	> 30
COc1ccc(CCN2CCC(Nc3nc4ccccc4n3Cc3ccc(F)cc3)CC2)cc1	4.18
CC1=C[C@@H](CNC(C)C)[C@H](C(C)C)C[C@H]1Cc1nnc(-c2ccncc2)o1	4.76
CC(=O)N1CCC2(CCCN(c3ccc(-c4ccccc4)cc3)C2)CC1	16
CN(C)c1cccc(-c2nccc(N3CCC(C(N)=O)CC3)n2)c1	8.43
O=C(c1ccc(C(=O)N2CCC(N3CCCC3)CC2)c(Nc2ccccc2)c1)N1CCC(N2CCCC2)CC1	> 30
NC(=O)C1CCN(c2nc(-c3ccc4c(c3)CCO4)cs2)CC1	5.55
CCOc1ccc(N2CC(c3nc(-c4cc(OC)c(OC)c(OC)c4)no3)CC2=O)cc1 (configuration not stated)	7.3
O=C(Nc1ncnc2sc3c(c12)CCC3)c1ccco1	5.6
NC(=O)C1CCN(c2nc(-c3ccc4c(c3)OCCCO4)cs2)CC1	6.7
O=C(CCCCCCC(=O)Nc1ccccc1)NO	> 30
Cc1cn2c(N)c(Cl)cc(C(=O)NCC3CCN(CC(C)C)CC3)c2n1	> 30
Nc1ncc(S(=O)(=O)N2CCN(c3ccccc3)CC2)cn1	1.3
CCOc1cc2c(cc1OCC)CN(C(=O)c1cc3sccc3n1Cc1ccccc1)CC2	2.8
CN1Cc2c(ccc3c2OCO3)[C@@H]2[C@H]1c1cc3c(cc1C[C@@H]2O)OCO3	2.12
